How the values were obtained:
CINC-3 = test: cytokine/chemokine array (in vitro), CINC-3; type: cell-based, rat; conditions: (+) IL-1β 1 nM, Pa5 20 μM
Experimental: (§1) In like manner with Example 4, liver cells were isolated from male Wistar rats by a collagenase perfusion method. The isolated liver cells were suspended in a medium (similar to that in Example 4) at 1.2×10^6 cells/mL, seeded in 35 mm plastic dishes (similar to those in Example 4) (1 mL/dish), and cultured in an incubator with 5% CO2 at 37° C. After 5 hours, the medium was replaced with fresh WE free of any serum and hormone, and the cells were cultured overnight until before use of the cells for an experiment.
(§2) On day 1 after the start of the culture, cells were subjected to replacement with fresh WE free of any serum and hormone, and IL-1β (similar to that in Example 4), and Pa5 extracted with methanol in Example 1 or Pa5′ extracted with methanol in Example 2 were added to the medium. The concentrations of IL-1β, Pa5, and Pa5′ in each medium were 1 nM, 20 μM, and 100 μM, respectively (Table 1). Then, the cells were cultured at 37° C., and the medium was collected 3 hours after the start of the culture. The collected medium was centrifuged for 1 minute at 5000 rpm to remove cellular debris, and the supernatant was used in an assay. The supernatant was preserved at −80° C. until performing the assay.
(§3) The productions of the various inflammatory cytokines/chemokines were measured according to an accompanying protocol using Rat Cytokine Antibody Array (R&D Systems) (http://www.rndsystems.com/product_detail_objectname_ratcytokinearray.aspx) capable of detecting 29 kinds of cytokines/chemokines in Proteome Profiler® Antibody Array. In the measurement, 1 mL of the supernatant of the medium obtained as described above was used.
(§4) In the above-described method, the 29 kinds of the cytokines/chemokines can be detected at once, and chemiluminescence on the filter of Proteome Profiler Antibody Array increases in proportion to the amount of each cytokine/chemokine. Thus, the chemiluminescence on the filter of Proteome Profiler Antibody Array was detected with LAS3000mini (GE Healthcare), subjected to densitometry analysis, and converted into a numeric value. The densitometry analysis was carried out with reference to http://www.hm6.aitai.ne.jp/˜maxcat/imageJ/technique.html#gels (the heading of “Analyzing Electrophoretic Gels”) using ImageJ software.

[1] = test system: nitrogen monoxide (NO) production due to IL-1β; test: NO production inhibitory action in IL-1β-stimulated rat liver cells (Griess method); type: cell-based; conditions: IL-1β 1 nM, 8 hours; for IC50: nitrite by Griess method, read-out: IC50 value (drug concentration at NO production of 50%)
Experimental: Liver cells were isolated from male Wistar rats (200 to 250 g, Charles River) by a collagenase perfusion method (collagenase: Wako Pure Chemicals). The isolated liver cells were suspended in a medium at 6×10^5 cells/mL, seeded in 35 mm plastic dishes (Falcon Plastic) (2 mL/dish), and cultured in an incubator with 5% CO2 at 37° C. Williams' Medium E (WE) containing 10% newborn calf serum, HEPES (5 mM), penicillin (100 U/mL), streptomycin (0.1 mg/mL), dexamethasone (10 nM), and insulin (10 nM) was used as the medium. After 5 hours, the medium was replaced with fresh WE free of any serum and hormone, and the cells were cultured overnight until before use of the cells for an experiment.
On day 1 after the start of the culture, cells were subjected to replacement with fresh WE free of any serum and hormone, and recombinant rat IL-1β (purity of 97% or more) (PeproTech, Rocky Hill, N.J., USA), and Pa5 extracted with methanol in Example 1 or negletein in the comparative example were added to the medium. In each medium, the concentration of IL-1β was 1 nM, the concentrations of Pa5 were 5, 10, and 20 μM, and the concentrations of negletein were 10, 20, and 40 μM (FIG. 1). The amount of NO in each medium was measured 8 hours after the addition of IL-1β, and Pa5 or negletein by a Griess method (Green L C et al, Anal Biochem 1982; 126: 131-138). More specifically, the amount of nitrite (stable metabolite of NO) in each medium was measured.
Liver cells originated from rats were cultured in like manner with Example 4. On day 1 after the start of the culture, the cells were subjected to replacement with fresh WE free of any serum and hormone, and recombinant rat IL-1β (similar to that in Example 4) and Pa9 extracted with methanol in Example 3 were added to the medium. In each medium, the concentration of IL-1β was 1 nM, and the concentrations of Pa9 were 10 μM, 50 μM, and 100 μM (FIG. 5). The amount of NO in each medium was measured 8 hours after the addition of IL-1β and Pa9 in like manner with Example 4.

Fractalkine (CX3CL1) = test: cytokine/chemokine array (in vitro), Fractalkine; type: cell-based, rat; conditions: (+) IL-1β 1 nM, Pa5 20 μM
Experimental: as §1, §2, §3, §4

sICAM-1 (CD54) = test: cytokine/chemokine array (in vitro), sICAM-1; type: cell-based, rat; conditions: (+) IL-1β 1 nM, Pa5 20 μM
Experimental: as §1, §2, §3, §4

[2] = test system: various inflammatory cytokines/chemokines; test: cytokine/chemokine arrays (in vitro), overall; type: cell-based; conditions: rat liver cells, IL-1β 1 nM, Pa5 20 μM, 3 hours
Experimental: as §1, with “experiment. […]” for “experiment.”
as §3, with “In the measurement, 1 mL of the supernatant of the medium obtained as described above was used.” left out
In the above-described method, the 29 kinds of the cytokines/chemokines can be detected at once, and chemiluminescence on the filter of Proteome Profiler Antibody Array increases in proportion to the amount of each cytokine/chemokine. Thus, the chemiluminescence on the filter of Proteome Profiler Antibody Array was detected with LAS3000mini (GE Healthcare), subjected to densitometry analysis, and converted into a numeric value. […]

Thymus Chemokine (CXCL7) = test: cytokine/chemokine array (in vitro), Thymus Chemokine; type: cell-based, rat; conditions: (+) IL-1β 1 nM, Pa5 20 μM
Experimental: as §1, §2, §3, §4

[3] = test system: VEGF (VEGF-A/Vasculotropin); test: cytokine/chemokine array (in vitro), VEGF; type: cell-based, rat; conditions: (+) IL-1β 1 nM, Pa5 20 μM
Experimental: as §1, §2, §3, §4

rat liver cells = test: LDH activity of medium (cytotoxicity); type: cell-based; conditions: IL-1β 1 nM plus Pa5, 8 hours
Experimental: Further, lactate dehydrogenase (LDH) activity was measured to investigate the cytotoxicity of Pa5. The lactate dehydrogenase (LDH) activity of each medium was measured using LDH Cytotoxicity Detection Kits (Takara Bio Inc.). LDH is an enzyme existing in a cell, and therefore migrates into a medium due to cell damage. Each medium was collected 8 hours after the addition of IL-1β, and Pa5 or negletein, and was used for measuring the activity. Actually, each sample (50 μl of medium) and Solution C (50 μl) in the kit were mixed and left standing at room temperature for 30 minutes, 1 M hydrochloric acid (25 μl) was added to stop the reaction, and the absorbance of the resultant at 490 nm was measured and compared with a calibration curve using LDH of known concentration to determine the LDH activity. The LDH activity of the whole cells on one dish (that is, whole-cell extract) was considered to be a positive control (positive control in FIG. 3), and was regarded as 100%. The medium was removed from each dish containing the liver cells, the cells were washed three times with phosphate buffered saline (PBS), then ultrasonically broken, and centrifuged at 10000×g for 3 minutes to then obtain a supernatant, which was used as a whole-cell extract, and the LDH activity of the cells was measured.

MIG (CXCL9) = test: cytokine/chemokine array (in vitro), MIG; type: cell-based, rat; conditions: (+) IL-1β 1 nM, Pa5 20 μM
Experimental: as §1, §2, §3, §4

CINC-2α/β = test: cytokine/chemokine array (in vitro), CINC-2α/β; type: cell-based, rat; conditions: (+) IL-1β 1 nM, Pa5 20 μM
Experimental: as §1, §2, §3, §4

IL-17 = test: cytokine/chemokine array (in vitro), IL-17; type: cell-based, rat; conditions: (+) IL-1β 1 nM, Pa5 20 μM
Experimental: as §1, §2, §3, §4

COc1cc2c(c(O)c1OC)OC(c1ccccc1)CC2=O (stereo not shown) [Pa5, 8-hydroxy-6,7-dimethoxyflavanone]
CINC-3 (%) (CINC-3; 3 hours, (+) alone = 100.0): 0.6% | CINC-3 chemiluminescence densitometry, Average (CINC-3; medium at 3 hours): 17.1 | CINC-3 chemiluminescence densitometry, first value (CINC-3; medium at 3 hours): 16.1 | CINC-3 chemiluminescence densitometry, second value (CINC-3; medium at 3 hours): 18.1 | degree of NO production inhibitory action, comparison at the same addition concentration ([1]; 10 μM): higher than that of negletein | IC50 [1]: 9 µM | production of NO due to IL-1β ([1]; Pa5 5, 10, 20 μM): dose-dependently inhibited | Fractakine (CX3CL1) (%) (Fractalkine (CX3CL1); 3 hours, (+) alone = 100.0): 0.0% | Fractakine (CX3CL1) chemiluminescence densitometry, Average (Fractalkine (CX3CL1); medium at 3 hours): 0.0 | Fractakine (CX3CL1) chemiluminescence densitometry, first value (Fractalkine (CX3CL1); medium at 3 hours): 0.0 | Fractakine (CX3CL1) chemiluminescence densitometry, second value (Fractalkine (CX3CL1); medium at 3 hours): 0.0 | sICAM-1 (CD54) (%) (sICAM-1 (CD54); 3 hours, (+) alone = 100.0): 0.0% | sICAM-1 (CD54) chemiluminescence densitometry, Average (sICAM-1 (CD54); medium at 3 hours): 0.0 | sICAM-1 (CD54) chemiluminescence densitometry, first value (sICAM-1 (CD54); medium at 3 hours): 0.0 | sICAM-1 (CD54) chemiluminescence densitometry, second value (sICAM-1 (CD54); medium at 3 hours): 0.0 | induction of various cytokines/chemokines [2]: strongly inhibit | Thymus Chemokine (CXCL7) (%) (Thymus Chemokine (CXCL7); 3 hours, (+) alone = 100.0): 0.0% | Thymus Chemokine (CXCL7) chemiluminescence densitometry, Average (Thymus Chemokine (CXCL7); medium at 3 hours): 0.0 | Thymus Chemokine (CXCL7) chemiluminescence densitometry, first value (Thymus Chemokine (CXCL7); medium at 3 hours): 0.0 | Thymus Chemokine (CXCL7) chemiluminescence densitometry, second value (Thymus Chemokine (CXCL7); medium at 3 hours): 0.0 | VEGF (VEGF-A/Vasculotropin) (%) ([3]; 3 hours, (+) alone = 100.0): 29.0% | VEGF (VEGF-A/Vasculotropin) chemiluminescence densitometry, Average ([3]; medium at 3 hours): 236.8 | VEGF (VEGF-A/Vasculotropin) chemiluminescence densitometry, first value ([3]; medium at 3 hours): 241.4 | VEGF (VEGF-A/Vasculotropin) chemiluminescence densitometry, second value ([3]; medium at 3 hours): 232.3 | LDH activity of medium (rat liver cells): equivalent to that in the case of adding IL-1β | cytotoxicity (from LDH activity) (rat liver cells): no cytotoxicity | MIG (CXCL9) (%) (MIG (CXCL9); 3 hours, (+) alone = 100.0): 0.0% | MIG (CXCL9) chemiluminescence densitometry, Average (MIG (CXCL9); medium at 3 hours): 0.0 | MIG (CXCL9) chemiluminescence densitometry, first value (MIG (CXCL9); medium at 3 hours): 0.0 | MIG (CXCL9) chemiluminescence densitometry, second value (MIG (CXCL9); medium at 3 hours): 0.0 | CINC-2α/β (%) (CINC-2α/β; 3 hours, (+) alone = 100.0): 2.8% | CINC-2α/β chemiluminescence densitometry, Average (CINC-2α/β; medium at 3 hours): 170.2 | CINC-2α/β chemiluminescence densitometry, first value (CINC-2α/β; medium at 3 hours): 209.7 | CINC-2α/β chemiluminescence densitometry, second value (CINC-2α/β; medium at 3 hours): 130.6 | IL-17 (%) (IL-17; 3 hours, (+) alone = 100.0): 0.0% | IL-17 chemiluminescence densitometry, Average (IL-17; medium at 3 hours): 0.0 | IL-17 chemiluminescence densitometry, first value (IL-17; medium at 3 hours): 0.0 | IL-17 chemiluminescence densitometry, second value (IL-17; medium at 3 hours): 0.0

COc1cc2oc(-c3ccccc3)cc(=O)c2c(O)c1O [negletein, reference compound]
IC50 [1]: 16.3 µM | production of NO due to IL-1β ([1]; negletein 10, 20, 40 μM): dose-dependently inhibited

— US9573920B2, “Compound, medicine, anti-inflammatory, cosmetic, food and drink, and method for producing compound” (Amino Up Chemical Co., Ltd., priority 2013, dated 2017)
